US20140243404A1, “UNIQUE HALOGEN-INDUCED CYCLIZATIONS, REAGENTS THEREFOR, AND COMPOUNDS PRODUCED THEREBY” (The Trustees of Columbia University in the City of New York, priority 2010, published 2014)
Like-named read-outs stand apart in the source and are kept apart here.

Assays:
[1] = Storage and handling stability of the halonium reagents; type: physicochemical
[2] = Solubility of the halonium reagents in organic solvents; type: physicochemical
[3] = tested on: reverse transcriptases of the Human Immunodeficiency Virus; conditions: published indications, refs 7c, 7d, cited from earlier work

CC[S+](Br)CC [BDSB, bromodiethylsulfonium bromopentachloroantimonate]
stable for ([1]; ambient temperature, enclosed vial): at least 1 week | stable for ([1]; −20° C.): a year or more | solubility ([2]; acetone, methanol, ethanol, THF, reacts with these solvents): soluble | solubility ([2]; ambient temperature, CH2Cl2, 1,2-dichloroethane, chloroform, toluene): moderately to slightly soluble | solubility ([2]; ambient temperature, MeNO2, EtNO2, MeCN, DMSO, DMF, EtOAc): fully soluble | solubility ([2]; ambient temperature, benzene, hexanes, pentane): insoluble | solubility ([2]; several organic solvents): good solubility

CC[S+](Cl)CC [CDSC, Chlorodiethylsulfonium hexachloroantimonate]
stable for ([1]; −20° C.): at least several months

CC1=CC[C@H]2C(C)(C)[C@@H](Br)CC[C@]2(C)[C@@H]1Cc1cc(O)c(CC(=O)O)cc1O [peyssonoic acid A]
inhibitor of the reverse transcriptases of the Human Immunodeficiency Virus [3]: possessed such activity

C=C1CC[C@H]2C(C)(C)[C@@H](Br)CC[C@]2(C)[C@@H]1Cc1cc(O)c(C=O)cc1O [peyssonol A]
inhibitor of the reverse transcriptases of the Human Immunodeficiency Virus [3]: allosteric inhibitor of the reverse transcriptases | inhibitor of the reverse transcriptases of the Human Immunodeficiency Virus ([3]; listed as peysonnol A): possessed such activity
